Values of other authors as cited in patent publication US20020136782A1, “Composition patent for solid-dosage form of weight loss product” (priority 2001, published 2002).

Details: non-toxic dose; equivalent doses

Row | Substance | chromosome damage
1 | Chromium picolinate | significant chromosome damage
2 | chromium polynicotinate | did not cause chromosome damage
